US8354436B2 (4SC Discovery GmbH, priority 2011, dated 2013)
Read-outs that look alike come from different tables or passages of the source.

Tests used:
Assay type in all cases: cell-based
Settings in all cases: 48 hours
IL-17FF = IL-17FF production by PHA-stimulated human PBMC (human IL-17F ELI-Pair)
Summary of the method: (§1)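 Compounds tested on PHA (2 μg/ml)-stimulated human PBMC, 1×10^5 cells/well, 48 h, at 10, 1, 0.1 and 0.01 μM or semilog titration for IC50. Cytokines in culture supernatant: IL-17AA/AF by Luminex BioPlex; IL-17AA, IL-17FF, IFN-γ by separate ELISAs.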

IFN-γ = IFN-γ production by PHA-stimulated human PBMC (OptEIA human IFN-g ELISA)
Summary of the method: as §1

[1] = tested on: PBMC from healthy human donors; test: T cell proliferation assay (PHA-stimulated human PBMC, BrdU ELISA)
Summary of the method: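 Healthy-donor PBMC isolated on Ficoll, seeded at 1×10⁵ cells/well in RPMI with 10% dialysed FCS, stimulated with 2 μg/ml PHA in presence of test compound. Proliferation read after 48 hours by BrdU-incorporation ELISA.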

[2] = PHA-stimulated human PBMC, column B, read-out: IC50 (IL-17FF)
[3] = PHA-stimulated human PBMC, column C, read-out: IC50 (IFNγ)
[4] = PHA-stimulated human PBMC, column D, read-out: IC50 (Tcell proliferation)
[5] = human PBMC, 2 μg/ml PHA, read-out: B: IC50 (IL-17FF)
[6] = human PBMC, 2 μg/ml PHA, read-out: C: IC50 (IFNγ)
[7] = human PBMC, 2 μg/ml PHA, read-out: D: IC50 (Tcell proliferation)

Compound	IC50 (IL-17FF; [2])	IC50 (IFN-γ; [3])	IC50 [1, 4]	IC50 (IL-17FF; [5])	IC50 (IFN-γ; [6])	IC50 [1, 7]
CCOC(=O)c1c(-c2onc(-c3c(F)cccc3Cl)c2C(=O)OC)cnn1-c1cccc(F)c1 [Example I-8, methyl 3-(2-chloro-6-fluorophenyl)-5-(5-(ethoxycarbonyl)-1-(3-fluorophenyl)-1H-pyrazol-4-yl)isoxazole-4-carboxylate]	100 to 1000 nM	100 to 1000 nM	100 to 1000 nM			
CCOC(=O)c1c(-c2onc(-c3c(F)cccc3Cl)c2C(=O)OC)cnn1-c1ccccc1F [Example I-41, methyl 3-(2-chloro-6-phenyl)-5-(5-(ethoxycarbonyl)-1-(2-fluorophenyl)-1H-pyrazol-4-yl)isoxazole-4-carboxylate]	100 to 1000 nM	100 to 1000 nM	100 to 1000 nM			
CCOC(=O)c1c(-c2c(Cl)cccc2Cl)noc1-c1cnn(-c2cccc(Cl)c2)c1C(F)(F)F [IB-45, ethyl 5-(1-(3-chlorophenyl)-5-(trifluoromethyl)-1H-pyrazol-4-yl)-3-(2,6-dichlorophenyl)-isoxazole-4-carboxylate]	< 10 nM	< 10 nM	< 10 nM			
COC(=O)c1c(-c2c(F)cccc2Cl)noc1-c1cnn(CC(F)(F)F)c1C(F)(F)F [Example I-65, methyl 3-(2-chloro-6-fluorophenyl)-5-(1-(2,2,2-trifluoroethyl)-5-(trifluoromethyl)-1H-pyrazol-4-yl)isoxazole-4-carboxylate]	10 to 100 nM	10 to 100 nM	10 to 100 nM			
CCOC(=O)c1c(-c2ccccc2Cl)noc1-c1cnn(-c2cccc(Cl)c2)c1C(F)(F)F [IB-41, ethyl 3-(2-chlorophenyl)-5-(1-(3-chlorophenyl)-5-(trifluoromethyl)-1H-pyrazol-4-yl)-isoxazole-4-carboxylate]	< 10 nM	< 10 nM	10 to 100 nM			
CCOC(=O)c1c(-c2c(F)cccc2Cl)noc1-c1cnn(-c2ccc([N+](=O)[O-])cc2)c1C(F)(F)F [IB-94, ethyl 3-(2-chloro-6-fluorophenyl)-5-(1-(4-nitrophenyl)-5-(trifluoromethyl)-1H-pyrazol-4-yl)isoxazole-4-carboxylate]	1000 to 10000 nM	1000 to 10000 nM	1000 to 10000 nM			
Fc1ccccc1-n1ncc(-c2onc(-c3c(F)cccc3Cl)c2-c2nnco2)c1C(F)(F)F [Example 15, 2-(3-(2-chloro-6-fluorophenyl)-5-(1-(2-fluorophenyl)-5-(trifluoromethyl)-1H-pyrazol-4-yl)isoxazol-4-yl)-1,3,4-oxadiazole]				100 to 1000 nM	100 to 1000 nM	100 to 1000 nM
CCOC(=O)c1c(-c2onc(-c3c(F)cccc3Cl)c2C(=O)OC)cnn1-c1ccc(F)cc1 [Example I-26, methyl 3-(2-chloro-6-fluorophenyl)-5-(5-(ethoxycarbonyl)-1-(4-fluorophenyl)-1H-pyrazol-4-yl)isoxazole-4-carboxylate]	1000 to 10000 nM	1000 to 10000 nM	1000 to 10000 nM			
CNC(=O)c1c(-c2c(F)cccc2Cl)noc1-c1cnn(-c2ccc(F)cc2)c1C(F)(F)F [Example I-55, 3-(2-chloro-6-fluorophenyl)-5-(1-(4-fluorophenyl)-5-(trifluoromethyl)-1H-pyrazol-4-yl)-N-methylisoxazole-4-carboxamide]	100 to 1000 nM	100 to 1000 nM	100 to 1000 nM			
O=C(Nc1c(-c2c(F)cccc2Cl)noc1-c1cnn(-c2cccc(F)c2)c1C(F)(F)F)C(F)(F)F [IB-22, N-{3-(2-chloro-6-fluorophenyl)-5-[1-(3-fluorophenyl)-5-(trifluoromethyl)-1H-pyrazol-4-yl]-1,2-oxazol-4-yl}-2,2,2-trifluoroacetamide]	1000 to 10000 nM	1000 to 10000 nM	1000 to 10000 nM			
CCOC(=O)c1c(-c2c(F)cccc2Cl)noc1-c1cnn(-c2cccnc2)c1C(F)(F)F [IB-37, ethyl 3-(2-chloro-6-fluorophenyl)-5-(1-(pyridin-3-yl)-5-(trifluoromethyl)-1H-pyrazol-4-yl)-isoxazole-4-carboxylate]	< 10 nM	< 10 nM	< 10 nM			
COC(=O)c1c(-c2c(F)cccc2Cl)noc1-c1cnn(-c2c(F)c(F)cc(F)c2F)c1C(F)(F)F [Example I-47, methyl 3-(2-chloro-6-fluorophenyl)-5-(1-(2,3,5,6-tetrafluorophenyl)-5-(trifluoromethyl)-1H-pyrazol-4-yl)isoxale-4-carboxylate]	100 to 1000 nM	100 to 1000 nM	100 to 1000 nM			
Fc1cccc(Cl)c1-c1noc(-c2cnn(-c3ccncc3)c2C(F)(F)F)c1Br [IB-83, 4-bromo-3-(2-chloro-6-fluorophenyl)-5-(1-(pyridin-4-yl)-5-(trifluoromethyl)-1H-pyrazol-4-yl)isoxazole]	100 to 1000 nM	1000 to 10000 nM	1000 to 10000 nM			
COC(=O)c1c(-c2ccccc2)noc1-c1cnn(-c2cccc(Cl)c2)c1C(F)(F)F [IB-30, methyl 5-(1-(3-chlorophenyl)-5-(trifluoromethyl)-1H-pyrazol-4-yl)-3-phenylisoxazole-4-carboxylate]	100 to 1000 nM	100 to 1000 nM	100 to 1000 nM			
O=C(c1c(-c2c(F)cccc2Cl)noc1-c1cnn(-c2ccccc2Cl)c1C(F)(F)F)N1CCCO1 [IB-49, (3-(2-chloro-6-fluorophenyl)-5-(1-(2-chlorophenyl)-5-(trifluoromethyl)-1H-pyrazol-4-yl)isoxazol-4-yl)(isoxazolidin-2-yl)methanone]	100 to 1000 nM	1000 to 10000 nM	1000 to 10000 nM			
Fc1cccc(Cl)c1-c1noc(-c2cnn(-c3ccccc3)c2C(F)(F)F)c1Br [Example I-145, 4-bromo-3-(2-chloro-6-fluorophenyl)-5-(1-phenyl-5-(trifluoromethyl)-1H-pyrazol-4-yl)isoxazole]	10 to 100 nM	< 10 nM	10 to 100 nM			
CCOC(=O)c1c(-c2c(Cl)cncc2Cl)noc1-c1cnn(-c2cccc(NC(C)=O)c2)c1C(F)(F)F [IB-11, ethyl 5-(1-(3-acetamidophenyl)-5-(trifluoromethyl)-1H-pyrazol-4-yl)-3-(3,5-dichloropyridin-4-yl)isoxazole-4-carboxylate]	10 to 100 nM	10 to 100 nM	100 to 1000 nM			
Fc1cccc(Cl)c1-c1noc(-c2cnn(-c3ccncc3)c2C(F)(F)F)c1-c1nnco1 [Example B-16, 2-(3-(2-chloro-6-fluorophenyl)-5-(1-(pyridin-4-yl)-5-(trifluoromethyl)-1H-pyrazol-4-yl)isoxazol-4-yl)-1,3,4-oxadiazole]				100 to 1000 nM	100 to 1000 nM	100 to 1000 nM
COC(=O)c1c(-c2c(F)cccc2Cl)noc1-c1cnn(-c2cccc(F)c2)c1 [IB-21, methyl 3-(2-chloro-6-fluorophenyl)-5-(1-(3-fluorophenyl)-1H-pyrazol-4-yl)isoxazole-4-carboxylate]	100 to 1000 nM	100 to 1000 nM	100 to 1000 nM			
COC(=O)c1c(-c2ccccc2Cl)noc1-c1cnn(-c2cccc(F)c2)c1C(F)(F)F [Example I-95, methyl 3-(2-chlorophenyl)-5-(1-(3-fluorophenyl)-5-(trifluoromethyl)-1H-pyrazol-4-yl)isoxazole-4-carboxylate]	< 10 nM	< 10 nM	< 10 nM			
CCOC(=O)c1c(-c2ccncc2F)noc1-c1cnn(-c2cccnc2)c1C(F)(F)F [IB-17, ethyl 3-(3-fluoropyridin-4-yl)-5-(1-(pyridin-3-yl)-5-(trifluoromethyl)-1H-pyrazol-4-yl)isoxazole-4-carboxylate]	100 to 1000 nM	1000 to 10000 nM	1000 to 10000 nM			
Cc1nnc(-c2c(-c3c(F)cccc3Cl)noc2-c2cnn(-c3ccccn3)c2C(F)(F)F)o1 [Example B-26, 2-(3-(2-chloro-6-fluorophenyl)-5-(1-(pyridin-2-yl)-5-(trifluoromethyl)-1H-pyrazol-4-yl)isoxazol-4-yl)-5-methyl-1,3,4-oxadiazole]				10 to 100 nM	10 to 100 nM	100 to 1000 nM
Fc1cccc(Cl)c1-c1noc(-c2cnn(-c3cccc(Cl)c3)c2C(F)(F)F)c1-c1nnco1 [Example B-5, 2-(3-(2-chloro-6-fluorophenyl)-5-(1-(3-chlorophenyl)-5-(trifluoromethyl)-1H-pyrazol-4-yl)isoxazol-4-yl)-1,3,4-oxadiazole]				< 10 nM	< 10 nM	< 10 nM
CCOC(=O)c1c(-c2c(F)cccc2Cl)noc1-c1cnn(CCOC)c1C(F)(F)F [IB-2, ethyl 3-(2-chloro-6-fluorophenyl)-5-(l-(2-methoxyethyl)-5-(trifluoromethyl)-1H-pyrazol-4-yl)isoxazole-4-carboxylate]	100 to 1000 nM	100 to 1000 nM	1000 to 10000 nM			
CC(=O)Nc1c(-c2c(F)cccc2Cl)noc1-c1cnn(-c2cccc(F)c2)c1C(F)(F)F [Example I-139, N-(3-(2-chloro-6-fluorophenyl)-5-(1-(3-fluorophenyl)-5-(trifluoromethyl)-1H-pyrazol-4-yl)isoxazol-4-yl)acetamide]	1000 to 10000 nM	1000 to 10000 nM	1000 to 10000 nM			
Fc1ccc(-n2ncc(-c3onc(-c4c(F)cccc4Cl)c3Br)c2C(F)(F)F)cc1 [IB-28, 4-bromo-3-(2-chloro-6-fluorophenyl)-5-(1-(4-fluorophenyl)-5-(trifluoromethyl)-1H-pyrazol-4-yl)isoxazole]	100 to 1000 nM	100 to 1000 nM	100 to 1000 nM			
